Experimental data from patent US4803266A, “3-Oxoalkylidene-2-azetidinone derivatives” (Taisho Pharmaceutical Co., Ltd., priority 1986, dated 1989).

What was measured:
[1] = test system: blood platelet aggregation; test: Blood platelet aggregation inhibition in vitro in rabbit PRP, ADP induced; type: cell-based, male, New Zealand strain house rabbit; settings: Oryctolagus cuniculus, ADP final concentration 5 μM, 37° C., 3 minutes preincubation, 50% inhibition of maximum aggregation rate
Procedure: (§1) Citrated blood (one volume of 3.2% sodium citrate; 9 volumes of blood) was collected from carotid artery of male, New Zealand strain house rabbit, centrifuged at 150 g for 15 minutes to give platelet rich plasma (PRP) as a supernatant, and the remaining blood was centrifuged at 1500 g for 10 minutes to give platelet poor plasma (PPP) as a supernatant. The platelet count of PRP was adjusted to 50-60×10^4 /μl by dilution of PPP. Blood platelet aggregation was carried out according to the method of Born [Born, G. V. R., Nature, 194, 927 (1962)]. Namely, 25 μl of the test drug, (all the test drugs were dissolved in dimethyl sulfoxide and adjusted to the desired concentration with physiological saline solution), was added to 250 μl of PRP, and the mixture was incubated at 37° C. for 3 minutes. 25 μl of the aggregation inducing substance [adenosine diphosphate (ADP); final concentration 5 μM or collagen: final concentration 5 μg/ml] was added, the mixture was measured for 5 minutes by blood platelet aggregation ability measurement apparatus (Aggricoda TM-PA-3210, Kyoto Dai-ichi Kagaku) to obtain the maximum aggregation rate, and there was calculated the concentration of the test drug (ICP50) which brings about 50% inhibition to the maximum aggregation rate obtained by adding the aggregation inducing substance to PRP containing the solvent only.
(§2) The compound numbers in Table 1 correspond to those in the Examples described below.

[2] = test system: blood platelet aggregation; test: Blood platelet aggregation inhibition in vitro in rabbit PRP, collagen induced; type: cell-based, male, New Zealand strain house rabbit; settings: Oryctolagus cuniculus, collagen final concentration 5 μg/ml, 37° C., 3 minutes preincubation, 50% inhibition of maximum aggregation rate
Procedure: as §1, §2

Structure (SMILES) | IC50 [1] [µM] | IC50 [2] [µM]
CC(=O)/C=C1/C(=O)N(c2ccccc2)C1c1ccccc1 (stereo not drawn) [Compound 1, (E)-3-(2-oxopropylidene)-1,4-diphenyl-2-azetidinone] | 33 | 14
CCC(=O)/C=C1/C(=O)N(c2ccccc2)C1c1ccccc1 (stereo not drawn) [Compound 2] | 28 | 32
O=C(/C=C1/C(=O)N(c2ccccc2)C1c1ccccc1)c1ccccc1 (stereo not drawn) [Compound 4] | 13 | 16
Cc1ccc(C(=O)/C=C2/C(=O)N(c3ccccc3)C2c2ccccc2)cc1 (stereo not drawn) [Compound 5] | 24 | 23.5
COc1ccc(C(=O)/C=C2/C(=O)N(c3ccccc3)C2c2ccccc2)cc1 (stereo not drawn) [Compound 6] | 24 | 18
COc1ccc(C(=O)/C=C2/C(=O)N(c3ccccc3)C2c2ccccc2)c(OC)c1 (stereo not drawn) [Compound 7] | 12 | 23
O=C(/C=C1/C(=O)N(c2ccccc2)C1c1ccccc1)c1ccc(F)cc1 (stereo not drawn) [Compound 8] | 9.2 | 13.6
O=C(/C=C1/C(=O)N(c2ccccc2)C1c1ccccc1)c1ccc(Cl)cc1 (stereo not drawn) [Compound 9] | 15 | 12
O=C(/C=C1/C(=O)N(c2ccccc2)C1c1ccccc1)c1ccc(Br)cc1 (stereo not drawn) [Compound 10] | 36 | 26
O=C(/C=C1/C(=O)N(c2ccccc2)C1c1ccccc1)c1ccc(-c2ccccc2)cc1 (stereo not drawn) [Compound 11] | > 30 | 22
O=C(/C=C1/C(=O)N(c2ccccc2)C1c1ccccc1)c1ccc([N+](=O)[O-])cc1 (stereo not drawn) [Compound 12] | 5.6 | 4.7
CCOC(=O)CC(=O)/C=C1/C(=O)N(c2ccccc2)C1c1ccccc1 (stereo not drawn) [Compound 15] | 21.5 | 16.6
COc1ccc(C(=O)/C=C2/C(=O)N(c3ccccc3C)C2c2ccccc2)cc1 (stereo not drawn) [Compound 16] | 12.5 | 4.1
Cc1ccccc1N1C(=O)/C(=C/C(=O)c2ccc(F)cc2)C1c1ccccc1 (stereo not drawn) [Compound 17] | 7.7 | 5
Cc1ccccc1N1C(=O)/C(=C/C(=O)c2ccc([N+](=O)[O-])cc2)C1c1ccccc1 (stereo not drawn) [Compound 18] | 6.6 | 3.2
Cc1ccc(C(=O)/C=C2/C(=O)N(c3ccc(Cl)cc3C)C2c2ccccc2)cc1 (stereo not drawn) [Compound 21] | 30.9 | 
COc1ccc(C(=O)/C=C2/C(=O)N(c3ccc(Cl)cc3C)C2c2ccccc2)cc1 (stereo not drawn) [Compound 22] | 41.3 | 
Cc1cc(Cl)ccc1N1C(=O)/C(=C/C(=O)c2ccc([N+](=O)[O-])cc2)C1c1ccccc1 (stereo not drawn) [Compound 24] | 6.4 | 
CC(=O)/C=C1/C(=O)N(c2cc(Cl)ccc2C)C1c1ccccc1 (stereo not drawn) [Compound 25] | 11.1 | 6.6
Cc1ccc(Cl)cc1N1C(=O)/C(=C/C(=O)c2ccccc2)C1c1ccccc1 (stereo not drawn) [Compound 26] | 16.5 | 9.5

Structure (SMILES) | IC50 [1] [µM] | IC50 [2] [µM]
O=C(/C=C1/C(=O)N(c2ccc(F)cc2)C1c1ccccc1)c1ccccc1 (stereo not drawn) [Compound 29] | 9 | 8.1
O=C(/C=C1/C(=O)N(c2ccc(F)cc2)C1c1ccccc1)c1ccc([N+](=O)[O-])cc1 (stereo not drawn) [Compound 32] | 3.5 | 3.8
O=C(/C=C1/C(=O)N(c2ccccc2F)C1c1ccccc1)c1ccc(F)cc1 (stereo not drawn) [Compound 33] | 11.9 | 12.5
O=C(/C=C1/C(=O)N(c2ccccc2F)C1c1ccccc1)c1ccc([N+](=O)[O-])cc1 (stereo not drawn) [Compound 34] | 8.2 | 6.6
O=C(/C=C1/C(=O)N(c2cc(Cl)cc(Cl)c2)C1c1ccccc1)c1ccc(F)cc1 (stereo not drawn) [Compound 37] | 21.2 | 17.8
O=C(/C=C1/C(=O)N(c2cc(Cl)cc(Cl)c2)C1c1ccccc1)c1ccc([N+](=O)[O-])cc1 (stereo not drawn) [Compound 38] | 9 | 4.6
COc1ccc(C(=O)/C=C2/C(=O)N(c3ccc(Br)cc3)C2c2ccccc2)cc1 (stereo not drawn) [Compound 39] | > 30 | > 30
O=C(/C=C1/C(=O)N(c2ccc(Br)cc2)C1c1ccccc1)c1ccc(F)cc1 (stereo not drawn) [Compound 40] | 11.3 | 13.2
O=C(/C=C1/C(=O)N(c2ccc(Br)cc2)C1c1ccccc1)c1ccc([N+](=O)[O-])cc1 (stereo not drawn) [Compound 41] | 4.2 | 5.1
O=C(/C=C1/C(=O)N(c2cccc(C(F)(F)F)c2)C1c1ccccc1)c1ccccc1 (stereo not drawn) [Compound 43] | 14 | 7.7
O=C(/C=C1/C(=O)N(c2cccc(C(F)(F)F)c2)C1c1ccccc1)c1ccc(F)cc1 (stereo not drawn) [Compound 44] | 10.3 | 7.3
O=C(/C=C1/C(=O)N(c2cccc(C(F)(F)F)c2)C1c1ccccc1)c1ccc([N+](=O)[O-])cc1 (stereo not drawn) [Compound 45] | 4.4 | 5.2
O=C(/C=C1/C(=O)N(Cc2ccccc2)C1c1ccccc1)c1ccc(F)cc1 (stereo not drawn) [Compound 52] | 7.9 | 
O=C(/C=C1/C(=O)N(Cc2ccccc2)C1c1ccccc1)c1ccc([N+](=O)[O-])cc1 (stereo not drawn) [Compound 53] | 4.9 | 
CC(=O)/C=C1/C(=O)N(Cc2ccccc2Cl)C1c1ccccc1 (stereo not drawn) [Compound 54] | 11.2 | 15.5
O=C(/C=C1/C(=O)N(Cc2ccccc2Cl)C1c1ccccc1)c1ccc(F)cc1 (stereo not drawn) [Compound 55] | 10.5 | 8.3
O=C(/C=C1/C(=O)N(Cc2ccccc2Cl)C1c1ccccc1)c1ccc([N+](=O)[O-])cc1 (stereo not drawn) [Compound 56] | 2.9 | 6.5
CCc1ccc(C2/C(=C\C(=O)c3ccc(F)cc3)C(=O)N2c2ccccc2C)cc1 (stereo not drawn) [Compound 67] | 27.7 | 11
CCc1ccc(C2/C(=C\C(=O)c3ccc([N+](=O)[O-])cc3)C(=O)N2c2ccccc2C)cc1 (stereo not drawn) [Compound 68] | 13.6 | 7.5
O=C(/C=C1/C(=O)N(c2ccccc2)C1c1ccc(O)cc1)c1ccc([N+](=O)[O-])cc1 (stereo not drawn) [Compound 75] | 3.8 | 5.4

Structure (SMILES) | IC50 [1] [µM] | IC50 [2] [µM]
O=C(/C=C1/C(=O)N(c2ccccc2)C1c1ccc(F)cc1)c1ccc(F)cc1 (stereo not drawn) [Compound 76] | 14.3 | 10.5
O=C(/C=C1/C(=O)N(c2ccccc2)C1c1ccc(F)cc1)c1ccc([N+](=O)[O-])cc1 (stereo not drawn) [Compound 77] | 4.3 | 2.9
Cc1ccccc1N1C(=O)/C(=C/C(=O)c2ccc(F)cc2)C1c1ccc(F)cc1 (stereo not drawn) [Compound 78] | 6.2 | 8.3
Cc1ccccc1N1C(=O)/C(=C/C(=O)c2ccc([N+](=O)[O-])cc2)C1c1ccc(F)cc1 (stereo not drawn) [Compound 79] | 4.3 | 5.1
O=C(/C=C1/C(=O)N(c2ccccc2)C1c1ccccc1F)c1ccc(F)cc1 (stereo not drawn) [Compound 80] | 7.4 | 10.9
O=C(/C=C1/C(=O)N(c2ccccc2)C1c1ccccc1F)c1ccc([N+](=O)[O-])cc1 (stereo not drawn) [Compound 81] | 5.5 | 7
Cc1ccccc1N1C(=O)/C(=C/C(=O)c2ccc(F)cc2)C1c1ccc(Br)cc1 (stereo not drawn) [Compound 85] | 17.7 | 14.4
Cc1ccccc1N1C(=O)/C(=C/C(=O)c2ccc([N+](=O)[O-])cc2)C1c1ccc(Br)cc1 (stereo not drawn) [Compound 86] | 6.2 | 5.3
Cc1ccc(CN2C(=O)/C(=C/C(=O)c3ccc([N+](=O)[O-])cc3)C2c2ccccc2)cc1 (stereo not drawn) [Compound 91] | 9.7 | 6.7
COc1ccc(CN2C(=O)/C(=C/C(=O)c3ccc([N+](=O)[O-])cc3)C2c2ccccc2)cc1 (stereo not drawn) [Compound 92] | 7.3 | 6.5
O=C(/C=C1/C(=O)N(Cc2ccc(F)cc2)C1c1ccccc1)c1ccc([N+](=O)[O-])cc1 (stereo not drawn) [Compound 93] | 18.3 | 8.7
COc1ccccc1CN1C(=O)/C(=C/C(=O)c2ccc([N+](=O)[O-])cc2)C1c1ccccc1 (stereo not drawn) [Compound 94] | 8 | 6.9
O=C(/C=C1/C(=O)N(Cc2ccccc2C(F)(F)F)C1c1ccccc1)c1ccc([N+](=O)[O-])cc1 (stereo not drawn) [Compound 95] | 15.4 | 2.5
O=C(/C=C1/C(=O)N(Cc2ccccc2F)C1c1ccccc1)c1ccc([N+](=O)[O-])cc1 (stereo not drawn) [Compound 96] | 3.9 | 3.7
O=C(/C=C1/C(=O)N(Cc2cccc(Cl)c2)C1c1ccccc1)c1ccc([N+](=O)[O-])cc1 (stereo not drawn) [Compound 97] | 16 | 3.2
O=C(/C=C1/C(=O)N(Cc2ccc(Cl)cc2)C1c1ccccc1)c1ccc([N+](=O)[O-])cc1 (stereo not drawn) [Compound 98] | 11.2 | 8.8
O=C(/C=C1/C(=O)N(Cc2ccc(Cl)cc2Cl)C1c1ccccc1)c1ccc([N+](=O)[O-])cc1 (stereo not drawn) [Compound 103] | 18.5 | 6.7
COc1ccc(Cc2nccc3cc(OC)c(OC)cc23)cc1OC [papaverin, reference compound] | > 100 | > 100
